Key:
CnAcs1 [1] = target: T1, CnAcs1 (Cryptococcus neoformans, UniProt J9VFT1); test: Coupled continuous pyrophosphate detection assay (EnzChek) of ACS activity; conditions: for utilization as substrate for CnAcs1: alternative acid substrates
[2] = test system: CC(C)(COP(=O)(O)OP(=O)(O)OC[C@H]1O[C@@H](n2cnc3c(N)ncnc32)[C@H](O)[C@@H]1OP(=O)(O)O)[C@@H](O)C(=O)NCCC(=O)NCCS; test: purified protein, by the assay type
[3] = test system: Nc1ncnc2c1ncn2[C@@H]1O[C@H](COP(=O)(O)OP(=O)(O)OP(=O)(O)O)[C@@H](O)[C@H]1O; test: purified protein, by the assay type; conditions: 37.0 °C
CnAcs1 [4] = target: T1, CnAcs1; test: biochemical; assay type: binding; conditions: read-out: thermal shift (ΔTm)
A. fumigatus Acs1 = target: T2, A. fumigatus Acs1 (Aspergillus fumigatus, UniProt Q4WQ02); test: Coupled continuous pyrophosphate detection assay (EnzChek) of ACS activity
T2 sequence (Q4WQ02 2-670): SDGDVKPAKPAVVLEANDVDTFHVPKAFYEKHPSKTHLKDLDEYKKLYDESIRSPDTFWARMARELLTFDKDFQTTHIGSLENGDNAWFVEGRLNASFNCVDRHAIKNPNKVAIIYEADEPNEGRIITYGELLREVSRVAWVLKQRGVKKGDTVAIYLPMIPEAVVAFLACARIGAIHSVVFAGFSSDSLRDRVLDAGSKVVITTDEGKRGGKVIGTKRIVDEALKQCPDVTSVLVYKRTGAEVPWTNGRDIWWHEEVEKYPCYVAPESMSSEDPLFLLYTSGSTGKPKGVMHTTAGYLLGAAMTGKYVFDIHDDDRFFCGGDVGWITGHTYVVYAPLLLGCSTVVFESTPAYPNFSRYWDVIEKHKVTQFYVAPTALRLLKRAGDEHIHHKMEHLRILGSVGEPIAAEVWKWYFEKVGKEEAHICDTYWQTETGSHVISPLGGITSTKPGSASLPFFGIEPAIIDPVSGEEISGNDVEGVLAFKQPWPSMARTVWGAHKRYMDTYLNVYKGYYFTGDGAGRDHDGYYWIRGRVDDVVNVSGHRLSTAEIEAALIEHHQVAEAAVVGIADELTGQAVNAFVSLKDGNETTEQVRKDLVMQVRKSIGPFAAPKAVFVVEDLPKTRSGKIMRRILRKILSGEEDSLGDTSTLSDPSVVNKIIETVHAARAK

C. albicans Acs1 = C. albicans Acs1 (Candida albicans, UniProt Q8NJN3); test: as above
Chain of C. albicans Acs1 (Q8NJN3 2-671 limits assumed): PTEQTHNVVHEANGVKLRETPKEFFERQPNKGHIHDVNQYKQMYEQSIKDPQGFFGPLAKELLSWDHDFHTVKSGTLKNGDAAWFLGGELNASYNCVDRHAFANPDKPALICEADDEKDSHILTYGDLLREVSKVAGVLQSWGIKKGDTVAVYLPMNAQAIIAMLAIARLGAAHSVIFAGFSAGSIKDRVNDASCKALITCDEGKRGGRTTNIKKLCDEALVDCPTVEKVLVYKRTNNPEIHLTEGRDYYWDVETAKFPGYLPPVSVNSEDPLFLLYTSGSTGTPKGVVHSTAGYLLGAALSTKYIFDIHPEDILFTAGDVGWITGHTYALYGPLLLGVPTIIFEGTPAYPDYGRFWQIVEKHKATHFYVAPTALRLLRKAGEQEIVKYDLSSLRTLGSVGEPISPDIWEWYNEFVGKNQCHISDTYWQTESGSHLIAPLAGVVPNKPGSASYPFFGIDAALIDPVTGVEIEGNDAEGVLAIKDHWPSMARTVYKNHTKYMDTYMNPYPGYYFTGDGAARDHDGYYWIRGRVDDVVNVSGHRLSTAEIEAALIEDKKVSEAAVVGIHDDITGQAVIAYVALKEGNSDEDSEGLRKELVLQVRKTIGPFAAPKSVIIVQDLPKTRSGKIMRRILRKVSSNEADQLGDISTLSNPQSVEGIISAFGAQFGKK

C. immitis Acs1 = C. immitis Acs1 (Coccidioides immitis, UniProt J3KJC6); test: biochemical
Chain of C. immitis Acs1 (J3KJC6 2-691 limits assumed): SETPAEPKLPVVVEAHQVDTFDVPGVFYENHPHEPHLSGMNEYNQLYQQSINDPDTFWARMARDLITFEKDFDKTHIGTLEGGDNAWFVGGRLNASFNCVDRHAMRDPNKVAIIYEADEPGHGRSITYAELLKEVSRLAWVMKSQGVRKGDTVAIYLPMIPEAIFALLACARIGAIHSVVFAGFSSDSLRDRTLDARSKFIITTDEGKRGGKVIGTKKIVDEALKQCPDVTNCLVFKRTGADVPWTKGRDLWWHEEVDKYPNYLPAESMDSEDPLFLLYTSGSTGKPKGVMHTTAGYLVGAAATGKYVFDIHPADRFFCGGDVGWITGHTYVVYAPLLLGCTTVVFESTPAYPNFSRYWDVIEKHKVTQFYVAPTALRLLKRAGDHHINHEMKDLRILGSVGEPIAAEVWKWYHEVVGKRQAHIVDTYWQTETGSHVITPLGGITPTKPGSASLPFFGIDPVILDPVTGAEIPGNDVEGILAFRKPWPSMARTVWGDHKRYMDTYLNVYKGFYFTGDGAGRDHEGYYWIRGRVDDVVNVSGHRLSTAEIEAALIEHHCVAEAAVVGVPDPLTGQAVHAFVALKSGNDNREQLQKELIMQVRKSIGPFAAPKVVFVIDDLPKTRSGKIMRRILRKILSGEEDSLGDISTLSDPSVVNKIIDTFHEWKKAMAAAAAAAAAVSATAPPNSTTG

C. posadasii Acs1 = C. posadasii Acs1 (Coccidioides posadasii, UniProt C5PGB4); test: biochemical
Chain of C. posadasii Acs1 (C5PGB4 2-691 limits assumed): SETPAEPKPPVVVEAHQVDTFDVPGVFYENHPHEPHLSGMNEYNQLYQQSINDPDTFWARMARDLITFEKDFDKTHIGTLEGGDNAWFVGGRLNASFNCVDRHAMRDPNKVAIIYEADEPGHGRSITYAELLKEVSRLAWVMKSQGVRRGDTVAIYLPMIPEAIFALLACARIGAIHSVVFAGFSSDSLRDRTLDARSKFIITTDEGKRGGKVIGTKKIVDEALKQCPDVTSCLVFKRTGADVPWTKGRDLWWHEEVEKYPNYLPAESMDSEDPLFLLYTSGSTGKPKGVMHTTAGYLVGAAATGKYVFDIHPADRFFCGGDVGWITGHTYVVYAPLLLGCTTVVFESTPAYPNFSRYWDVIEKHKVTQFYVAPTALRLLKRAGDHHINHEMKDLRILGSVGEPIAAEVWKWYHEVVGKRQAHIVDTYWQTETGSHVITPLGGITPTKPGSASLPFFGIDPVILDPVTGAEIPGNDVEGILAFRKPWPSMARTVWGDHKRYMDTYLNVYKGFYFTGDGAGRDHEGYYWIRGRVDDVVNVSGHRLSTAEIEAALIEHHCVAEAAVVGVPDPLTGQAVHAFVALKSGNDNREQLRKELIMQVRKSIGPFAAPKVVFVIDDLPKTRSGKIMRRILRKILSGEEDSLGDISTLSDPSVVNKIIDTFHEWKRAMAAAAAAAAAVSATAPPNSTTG

[5] = substrate: CC(C)(COP(=O)(O)OP(=O)(O)OC[C@H]1O[C@@H](n2cnc3c(N)ncnc32)[C@H](O)[C@@H]1OP(=O)(O)O)[C@@H](O)C(=O)NCCC(=O)NCCS; test: purified protein, by the assay type; conditions: 37 °C, ±S.E.M.
[6] = substrate: Nc1ncnc2c1ncn2[C@@H]1O[C@H](COP(=O)(O)OP(=O)(O)OP(=O)(O)O)[C@@H](O)[C@H]1O; test: purified protein, by the assay type; conditions: 37 °C, ±S.E.M.
[7] = other: substrate Km, other substrates in excess
[8] = other: substrate Km, other substrates in excess (ATP 2.5 mM, CoA 1 mM, sodium acetate 0.5 mM)
[9] = other: commercially available enzyme, control, other substrates in excess

NCC(=O)NS(=O)(=O)OCC1OC(n2cnc3c(N)ncnc32)C(O)C1O (centres unmarked) [glycine derivative of AMS]
inhibition of CnAcs1 (CnAcs1 [1]): no inhibition

C. posadasii Acs1 (Coccidioides posadasii C735 delta SOWgp)
Km ([2]; 37.0 °C): 314 ± 32 µM
Km [3]: 117 ± 15 µM

CCCOP(=O)(O)OC[C@H]1O[C@@H](n2cnc3c(N)ncnc32)[C@H](O)[C@@H]1O [propyl-AMP, propyl-adenosine monophosphate ester]
ΔTm at 1000 µM (CnAcs1 [4]): 12.2 °C
Ki (CnAcs1 [1]): 1240 ± 200 nM

C. albicans Acs1 (Candida albicans SC5314)
Km ([2]; other: substrate Km, other substrates in excess, 37 °C, ±S.E.M.): 471 ± 45 µM

CCCCOP(=O)(O)OC[C@H]1O[C@@H](n2cnc3c(N)ncnc32)[C@H](O)[C@@H]1O [butyl-AMP]
ΔTm at 1000 µM (CnAcs1 [4]): 6.7 °C
IC50 (CnAcs1 [1]): > 50000 nM
Ki (CnAcs1 [1]): > 50000 nM
inhibition of CnAcs1 (CnAcs1 [1]): no inhibition
IC50 (A. fumigatus Acs1): > 50000 nM
IC50 (C. albicans Acs1): > 50000 nM

COP(=O)(O)OC[C@H]1O[C@@H](n2cnc3c(N)ncnc32)[C@H](O)[C@@H]1O [methyl-AMP]
ΔTm at 1000 µM (CnAcs1 [4]): 8.3 °C
Ki (CnAcs1 [1]): 39000 ± 11000 nM
fold less active than ethyl AMP ester (CnAcs1 [1]): ~100 fold

CC(=O)NS(=O)(=O)OC[C@H]1O[C@@H](n2cnc3c(N)ncnc32)[C@H](O)[C@@H]1O [acyl-AMS, acetyl-adenosine monosulfonamide]
Ki (CnAcs1 [1]): 590 nM

Nc1ncnc2c1ncn2[C@@H]1O[C@H](COP(=O)(O)OP(=O)(O)OP(=O)(O)O)[C@@H](O)[C@H]1O [ATP, adenosine triphosphate, reference compound]
calculated binding energy ΔG (CnAcs1 [1]): -6 kcal/mol

CCC(=O)O [propionate, reference compound]
Km fold higher than acetate (CnAcs1 [1]; alternative acid substrate, relative to acetate): > 100 fold

CCCCC(=O)O [valerate, reference compound]
utilization as substrate for CnAcs1 (CnAcs1 [1]): neither valerate nor butyrate were CnAcs1 substrates

C. immitis Acs1 (Coccidioides immitis RS)
Km ([2]; 37.0 °C): 441 ± 45 µM
Km [3]: 102 ± 8 µM

Nc1ncnc2c1ncn2[C@@H]1O[C@H](COS(N)(=O)=O)[C@@H](O)[C@H]1O [AMS, adenosine monosulfonamide]
ΔTm at 1000 µM (CnAcs1 [4]): -0.2 °C
Ki (CnAcs1 [1]): > 50000 nM

CCCC(=O)O [butyrate, reference compound]
utilization as substrate for CnAcs1 (CnAcs1 [1]): neither valerate nor butyrate were CnAcs1 substrates
inhibition of acetate utilization (CnAcs1 [1]; non-preferred acid substrate): does not inhibit

CCOP(=O)(O)OC[C@H]1O[C@@H](n2cnc3c(N)ncnc32)[C@H](O)[C@@H]1O [ethyl-AMP]
ΔTm at 1000 µM (CnAcs1 [4]): 14.2 °C
IC50 (C. immitis Acs1): 60 nM
IC50 (C. posadasii Acs1): 70 nM
IC50 (CnAcs1 [1]): 2100 nM
Ki (CnAcs1 [1]): 470 nM
IC50 (A. fumigatus Acs1): 60 nM
IC50 (C. albicans Acs1): 290 nM

B1: A. fumigatus Acs1 (Aspergillus fumigatus Af293) (protein)
chain: SDGDVKPAKPAVVLEANDVDTFHVPKAFYEKHPSKTHLKDLDEYKKLYDESIRSPDTFWARMARELLTFDKDFQTTHIGSLENGDNAWFVEGRLNASFNCVDRHAIKNPNKVAIIYEADEPNEGRIITYGELLREVSRVAWVLKQRGVKKGDTVAIYLPMIPEAVVAFLACARIGAIHSVVFAGFSSDSLRDRVLDAGSKVVITTDEGKRGGKVIGTKRIVDEALKQCPDVTSVLVYKRTGAEVPWTNGRDIWWHEEVEKYPCYVAPESMSSEDPLFLLYTSGSTGKPKGVMHTTAGYLLGAAMTGKYVFDIHDDDRFFCGGDVGWITGHTYVVYAPLLLGCSTVVFESTPAYPNFSRYWDVIEKHKVTQFYVAPTALRLLKRAGDEHIHHKMEHLRILGSVGEPIAAEVWKWYFEKVGKEEAHICDTYWQTETGSHVISPLGGITSTKPGSASLPFFGIEPAIIDPVSGEEISGNDVEGVLAFKQPWPSMARTVWGAHKRYMDTYLNVYKGYYFTGDGAGRDHDGYYWIRGRVDDVVNVSGHRLSTAEIEAALIEHHQVAEAAVVGIADELTGQAVNAFVSLKDGNETTEQVRKDLVMQVRKSIGPFAAPKAVFVVEDLPKTRSGKIMRRILRKILSGEEDSLGDTSTLSDPSVVNKIIETVHAARAK
Km [5, 7]: 340 ± 26 µM
Km [6, 7]: 42 ± 11 µM

B2: CnAcs1 (Cryptococcus neoformans H99) (protein)
chain: GKTEVAPGVHHVHPLPDSVPESEDLFAPPPRMQGKEGRPKPHIGPNYESYVKEWAKTVGPNSDEWWAAKARETLDWYDDFKTVRAGGFEHGDVQWFPEGTLNAAYNCLDRHYYKNPKKTAIIYEADEPSESREVSYEELMQETCRVANVLKSYGVKKGDAVSIYLPMTWQAAAAFLACARIGAIHSAVFAGFSAESLRDRVNDCECKVLITTDEGRRGGKTIATKQIVDAALQQCPLVENVLVLRRTGNKVPMTEGRDKWWDEECAKMPAYCPCERMASEDPLFILYTSGSTGKPKGVVHSTAGYLLGTALTLKYVFDAHPDDRFACMADIGWITGHSYIIYGPLANGITTAVFESTPVYPTPSRYWDFVDKWKATQLYTAPTAIRLLRRMGEDHVKNHDLSSLRVLGSVGEPINPEAWHWYNDFAGKNQCAIVDTYWMTETGSISIAPLPGAISTKPGSATFPFFGMDVDIIDPQTGQVLEGNDVEGVLVARRPWPSIARTVYRDHKRYLETYMKPYPGYFFFGDGAARDYDGYMWIKGRVDDVINVSGHRLSTAEVESALILHKGVAETAVVGCADDLTGQAVYAFVTMKPEFDLKATKEADLSKELAIQVRKVIGPFAAPKKIYLVSDLPKTRSGKIMRRVLRKIVAGEGDQLGDLSSIADPQIVEEVKQKVTGSA
Km [5, 8]: 880 ± 170 µM
Km [6, 8]: 59 ± 10 µM

B3: S. cerevisiae Acs1 (Saccharomyces cerevisiae S288C) (protein)
chain: MSPSAVQSSKLEEQSSEIDKLKAKMSQSAATAQQKKEHEYEHLTSVKIVPQRPISDRLQPAIATHYSPHLDGLQDYQRLHKESIEDPAKFFGSKATQFLNWSKPFDKVFIPDPKTGRPSFQNNAWFLNGQLNACYNCVDRHALKTPNKKAIIFEGDEPGQGYSITYKELLEEVCQVAQVLTYSMGVRKGDTVAVYMPMVPEAIITLLAISRIGAIHSVVFAGFSSNSLRDRINDGDSKVVITTDESNRGGKVIETKRIVDDALRETPGVRHVLVYRKTNNPSVAFHAPRDLDWATEKKKYKTYYPCTPVDSEDPLFLLYTSGSTGAPKGVQHSTAGYLLGALLTMRYTFDTHQEDVFFTAGDIGWITGHTYVVYGPLLYGCATLVFEGTPAYPNYSRYWDIIDEHKVTQFYVAPTALRLLKRAGDSYIENHSLKSLRCLGSVGEPIAAEVWEWYSEKIGKNEIPIVDTYWQTESGSHLVTPLAGGVTPMKPGSASFPFFGIDAVVLDPNTGEELNTSHAEGVLAVKAAWPSFARTIWKNHDRYLDTYLNPYPGYYFTGDGAAKDKDGYIWILGRVDDVVNVSGHRLSTAEIEAAIIEDPIVAECAVVGFNDDLTGQAVAAFVVLKNKSSWSTATDDELQDIKKHLVFTVRKDIGPFAAPKLIILVDDLPKTRSGKIMRRILRKILAGESDQLGDVSTLSNPGIVRHLIDSVKL
Km [5, 9]: 348 ± 43 µM
Km [6, 9]: 161 ± 73 µM
